Source: ChEMBL document CHEMBL1201862, “PubChem BioAssay data set” (2004)
Activity calls are given as the source filed them.

Key:
Mu-type opioid receptor = Mu-type opioid receptor (Homo sapiens, UniProt P35372); format: functional, cell-based;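 also: U2OS cells with beta-arrestin recruitment to OPRM1 by beta-gal complementation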
[1] = molecular target: 5-hydroxytryptamine receptor 2A (Mus musculus, UniProt P35363); format: functional, cell-based;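 also: CHO-K1 cells with tagged receptor and beta-arrestin; agonist potency measured as compound-induced activation of the receptor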
Chain of 5-hydroxytryptamine receptor 2A (P35363 whole entry): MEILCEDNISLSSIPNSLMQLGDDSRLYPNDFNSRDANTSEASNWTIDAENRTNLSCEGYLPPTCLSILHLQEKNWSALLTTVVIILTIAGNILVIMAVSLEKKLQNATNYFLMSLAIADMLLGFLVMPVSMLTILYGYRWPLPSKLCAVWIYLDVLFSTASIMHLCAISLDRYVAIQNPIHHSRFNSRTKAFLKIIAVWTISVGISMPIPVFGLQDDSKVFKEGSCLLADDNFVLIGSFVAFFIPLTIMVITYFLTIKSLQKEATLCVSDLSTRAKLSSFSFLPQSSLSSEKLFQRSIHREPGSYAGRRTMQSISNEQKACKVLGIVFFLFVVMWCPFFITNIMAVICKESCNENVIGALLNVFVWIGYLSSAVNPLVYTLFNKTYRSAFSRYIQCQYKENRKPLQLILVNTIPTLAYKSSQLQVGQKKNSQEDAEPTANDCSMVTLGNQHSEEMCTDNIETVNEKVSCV

[2] = molecular target: ADP-ribosylation factor GTPase-activating protein 1 (Rattus norvegicus, UniProt Q62848); test: Fluorescence polarization-based biochemical high throughput dose response screening assay to identify inhibitors of ADP-ribosylation factor GTPase activating protein 1 (ARFGAP1).; format: functional
Chain of ADP-ribosylation factor GTPase-activating protein 1 (Q62848 whole entry, the tested form may be a part): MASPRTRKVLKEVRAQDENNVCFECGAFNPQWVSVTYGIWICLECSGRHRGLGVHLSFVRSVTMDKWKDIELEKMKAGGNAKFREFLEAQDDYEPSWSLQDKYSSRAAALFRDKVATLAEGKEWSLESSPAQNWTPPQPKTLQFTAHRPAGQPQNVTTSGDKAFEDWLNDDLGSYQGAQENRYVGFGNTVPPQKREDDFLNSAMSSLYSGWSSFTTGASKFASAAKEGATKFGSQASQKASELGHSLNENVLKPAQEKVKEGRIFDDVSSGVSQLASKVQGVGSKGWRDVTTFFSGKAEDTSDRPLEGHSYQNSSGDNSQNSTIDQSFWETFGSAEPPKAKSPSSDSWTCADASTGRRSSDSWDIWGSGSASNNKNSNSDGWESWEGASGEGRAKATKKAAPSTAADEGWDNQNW

[3] = molecular target: Arf-GAP with SH3 domain, ANK repeat and PH domain-containing protein 1 (Homo sapiens, UniProt Q9ULH1); format: functional;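 also: biochemical fluorescence polarization dose–response screen measuring inhibition of ASAP1; ASAP1 GAP domain stimulating GTP hydrolysis by truncated human ARF1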
Chain of Arf-GAP with SH3 domain, ANK repeat and PH domain-containing protein 1 (Q9ULH1 whole entry, the tested form may be a part): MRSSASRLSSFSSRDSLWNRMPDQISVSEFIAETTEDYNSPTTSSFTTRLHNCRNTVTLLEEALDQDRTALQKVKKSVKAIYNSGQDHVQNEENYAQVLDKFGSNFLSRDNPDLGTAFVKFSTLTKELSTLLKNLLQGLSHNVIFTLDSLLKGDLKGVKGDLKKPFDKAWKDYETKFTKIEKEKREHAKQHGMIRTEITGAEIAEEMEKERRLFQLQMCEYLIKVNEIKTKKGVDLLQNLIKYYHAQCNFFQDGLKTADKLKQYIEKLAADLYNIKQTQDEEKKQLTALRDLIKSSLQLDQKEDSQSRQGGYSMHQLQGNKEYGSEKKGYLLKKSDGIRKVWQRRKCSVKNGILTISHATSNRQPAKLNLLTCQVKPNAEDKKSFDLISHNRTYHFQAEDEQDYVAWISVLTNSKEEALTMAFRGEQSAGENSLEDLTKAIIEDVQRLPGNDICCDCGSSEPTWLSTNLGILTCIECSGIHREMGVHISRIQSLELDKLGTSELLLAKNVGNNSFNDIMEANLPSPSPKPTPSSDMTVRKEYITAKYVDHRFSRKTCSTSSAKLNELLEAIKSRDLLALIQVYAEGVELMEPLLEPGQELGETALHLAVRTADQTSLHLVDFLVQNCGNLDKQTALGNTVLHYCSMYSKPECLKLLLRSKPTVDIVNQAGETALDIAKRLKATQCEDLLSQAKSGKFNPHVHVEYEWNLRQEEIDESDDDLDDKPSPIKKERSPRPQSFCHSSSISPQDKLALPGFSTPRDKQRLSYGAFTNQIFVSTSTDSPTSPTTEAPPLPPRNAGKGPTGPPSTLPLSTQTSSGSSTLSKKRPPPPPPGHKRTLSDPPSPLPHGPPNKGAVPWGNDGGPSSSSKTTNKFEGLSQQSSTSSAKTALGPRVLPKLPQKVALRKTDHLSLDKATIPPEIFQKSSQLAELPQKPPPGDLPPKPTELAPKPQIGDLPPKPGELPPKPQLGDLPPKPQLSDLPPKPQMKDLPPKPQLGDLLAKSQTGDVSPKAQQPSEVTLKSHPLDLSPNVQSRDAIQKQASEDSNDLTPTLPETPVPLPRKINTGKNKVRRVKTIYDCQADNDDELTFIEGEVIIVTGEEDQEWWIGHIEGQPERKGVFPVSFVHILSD

Beta-lactamase [4] = molecular target: Beta-lactamase (Pseudomonas aeruginosa, UniProt Q79MP6);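 also: biochemical dose-response test of metallo-beta-lactamase enzyme inhibition, read out by epi-absorbance; purified recombinant IMP-1 metallo-beta-lactamase with nitrocefin as substrate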
Chain of Beta-lactamase (Pseudomonas aeruginosa, UniProt Q79MP6) (Q79MP6 whole entry): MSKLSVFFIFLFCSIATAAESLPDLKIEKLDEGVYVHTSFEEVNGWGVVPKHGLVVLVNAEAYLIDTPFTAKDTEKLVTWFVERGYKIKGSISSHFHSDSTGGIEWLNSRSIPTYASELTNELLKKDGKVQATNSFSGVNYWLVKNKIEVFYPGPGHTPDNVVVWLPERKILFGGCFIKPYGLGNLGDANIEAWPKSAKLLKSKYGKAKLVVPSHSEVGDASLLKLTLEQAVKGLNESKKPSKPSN

cells = format: functional
Beta-lactamase [5] = molecular target: Beta-lactamase (Salmonella choleraesuis (strain SC-B67), UniProt Q5J463)
Chain of Beta-lactamase (Salmonella choleraesuis (strain SC-B67), UniProt Q5J463) (Q5J463 whole entry): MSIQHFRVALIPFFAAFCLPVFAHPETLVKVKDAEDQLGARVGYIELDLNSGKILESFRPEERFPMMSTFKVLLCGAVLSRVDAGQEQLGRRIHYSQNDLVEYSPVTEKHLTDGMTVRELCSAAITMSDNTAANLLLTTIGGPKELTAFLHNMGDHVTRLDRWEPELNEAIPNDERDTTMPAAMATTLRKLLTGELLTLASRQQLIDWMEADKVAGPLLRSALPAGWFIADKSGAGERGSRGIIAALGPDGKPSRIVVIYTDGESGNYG

[6] = control 3'UTR Renilla luciferase suppression, dose response, counter-screen for Shn3 inhibitor project, cell-based, Clone20-Shn3RL, cherry-picked (AID 624133); format: functional
[7] = molecular target: T1, Low molecular weight phosphotyrosine protein phosphatase (Homo sapiens, UniProt P24666); format: functional; conditions: read-out: IC50_Mean
T1 sequence (P24666 whole entry): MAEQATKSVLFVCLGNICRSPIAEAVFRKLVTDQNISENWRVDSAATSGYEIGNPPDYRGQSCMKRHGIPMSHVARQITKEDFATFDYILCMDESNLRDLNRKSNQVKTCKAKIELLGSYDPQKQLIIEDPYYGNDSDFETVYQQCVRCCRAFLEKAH

[8] = Shn3 3'UTR reporter inhibitors, dose response, cell-based, Clone20 osteoblasts, firefly luciferase, cherry-picked (AID 624132); format: functional;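 also: firefly luciferase luminescence from reporter carrying the Shn3 3'UTR in osteoblasts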
[9] = molecular target: T1, Low molecular weight phosphotyrosine protein phosphatase; format: functional; conditions: read-out: IC50_Mean; remark: listed apart in the source
[10] = HepG2 cell cytotoxicity, dose response, cytotoxicity control for Shn3 inhibitor project, CellTiter-Glo, cherry-picked (AID 624134); format: functional, cell-based
[11] = molecular target: T2, Tyrosine-protein phosphatase non-receptor type 22 (Homo sapiens, UniProt Q9Y2R2); test: LYP phosphatase inhibition for selectivity, dose response, selectivity assay for LMPTP inhibitor project, biochemical, fluorescence, LYP catalytic domain (AID 652006); format: functional; conditions: read-out: IC50_Mean
T2 sequence (Q9Y2R2 whole entry): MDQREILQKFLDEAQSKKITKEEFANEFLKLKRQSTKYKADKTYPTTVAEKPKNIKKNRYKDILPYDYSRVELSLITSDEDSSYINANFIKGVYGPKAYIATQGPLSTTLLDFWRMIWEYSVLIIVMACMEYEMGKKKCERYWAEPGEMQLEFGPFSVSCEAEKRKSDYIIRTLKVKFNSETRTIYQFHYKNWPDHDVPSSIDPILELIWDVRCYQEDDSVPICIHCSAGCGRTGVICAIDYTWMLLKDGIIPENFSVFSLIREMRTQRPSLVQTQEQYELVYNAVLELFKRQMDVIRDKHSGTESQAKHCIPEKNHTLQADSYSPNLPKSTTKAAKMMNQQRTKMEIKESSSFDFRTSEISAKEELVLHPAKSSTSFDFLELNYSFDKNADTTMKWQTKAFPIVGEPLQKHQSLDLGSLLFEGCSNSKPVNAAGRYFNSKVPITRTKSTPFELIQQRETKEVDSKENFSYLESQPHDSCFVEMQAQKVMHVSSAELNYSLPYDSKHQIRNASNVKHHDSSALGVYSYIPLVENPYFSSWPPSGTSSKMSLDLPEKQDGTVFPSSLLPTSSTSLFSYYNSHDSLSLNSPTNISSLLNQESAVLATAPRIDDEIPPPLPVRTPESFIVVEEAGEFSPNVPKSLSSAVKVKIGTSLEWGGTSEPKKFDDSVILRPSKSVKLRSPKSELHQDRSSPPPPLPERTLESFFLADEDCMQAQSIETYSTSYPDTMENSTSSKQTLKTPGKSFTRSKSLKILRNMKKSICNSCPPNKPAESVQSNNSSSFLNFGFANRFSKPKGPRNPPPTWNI

Protein skinhead-1 = molecular target: T3, Protein skinhead-1 (Caenorhabditis elegans, UniProt P34707); format: functional
T3 sequence (P34707 whole entry): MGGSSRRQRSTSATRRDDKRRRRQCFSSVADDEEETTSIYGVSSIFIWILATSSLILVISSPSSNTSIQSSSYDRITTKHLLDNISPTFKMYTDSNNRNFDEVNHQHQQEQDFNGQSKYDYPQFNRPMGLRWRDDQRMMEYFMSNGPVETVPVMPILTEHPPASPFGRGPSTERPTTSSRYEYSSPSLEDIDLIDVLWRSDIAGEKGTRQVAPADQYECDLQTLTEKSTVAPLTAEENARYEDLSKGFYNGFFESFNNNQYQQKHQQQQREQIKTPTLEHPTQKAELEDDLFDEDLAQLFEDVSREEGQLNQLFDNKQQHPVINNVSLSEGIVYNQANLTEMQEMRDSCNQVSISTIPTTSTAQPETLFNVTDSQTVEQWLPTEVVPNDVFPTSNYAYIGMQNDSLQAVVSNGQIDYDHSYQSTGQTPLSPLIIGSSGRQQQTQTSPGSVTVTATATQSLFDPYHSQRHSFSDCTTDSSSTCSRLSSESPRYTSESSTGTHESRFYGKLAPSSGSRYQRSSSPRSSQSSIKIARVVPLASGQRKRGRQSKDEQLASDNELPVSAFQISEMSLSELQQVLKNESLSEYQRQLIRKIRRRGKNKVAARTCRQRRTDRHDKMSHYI

[12] = molecular target: T4, Heat shock factor protein 1 (Mus musculus, UniProt P38532); test: inhibition of MG132-induced HSE-luciferase signal, confirmation, cell-based, NIH3T3, luminescence, dose retest (AID 2382); format: functional;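 also: NIH3T3 fibroblasts with HSF1-driven luciferase reporter stressed by proteasome inhibitor MG132; luminescence from HSF1-driven luciferase expression after 8 hours of MG132 stress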
T4 sequence (P38532 whole entry): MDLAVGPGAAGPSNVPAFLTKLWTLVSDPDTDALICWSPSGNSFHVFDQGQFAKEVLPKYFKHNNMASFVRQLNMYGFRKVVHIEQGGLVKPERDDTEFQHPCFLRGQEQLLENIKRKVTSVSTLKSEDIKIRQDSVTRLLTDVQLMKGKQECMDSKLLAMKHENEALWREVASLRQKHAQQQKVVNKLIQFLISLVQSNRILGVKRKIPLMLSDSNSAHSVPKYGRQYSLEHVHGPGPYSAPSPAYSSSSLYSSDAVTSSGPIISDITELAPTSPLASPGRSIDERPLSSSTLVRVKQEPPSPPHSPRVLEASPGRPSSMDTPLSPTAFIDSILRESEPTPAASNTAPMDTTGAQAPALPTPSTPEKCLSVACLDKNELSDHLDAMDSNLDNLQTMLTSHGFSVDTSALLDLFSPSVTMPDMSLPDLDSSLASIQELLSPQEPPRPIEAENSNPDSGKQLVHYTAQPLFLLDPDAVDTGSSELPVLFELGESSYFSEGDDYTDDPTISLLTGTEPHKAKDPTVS

Lethal factor = Lethal factor (Bacillus anthracis, UniProt P15917); test: High-throughput multiplex microsphere dose response for inhibitors of toxin protease, specifically Lethal Factor protease, compounds from Cherry Pick 02.; format: functional; conditions: read-out: EC50_MICROM
Chain of Lethal factor (P15917 whole entry): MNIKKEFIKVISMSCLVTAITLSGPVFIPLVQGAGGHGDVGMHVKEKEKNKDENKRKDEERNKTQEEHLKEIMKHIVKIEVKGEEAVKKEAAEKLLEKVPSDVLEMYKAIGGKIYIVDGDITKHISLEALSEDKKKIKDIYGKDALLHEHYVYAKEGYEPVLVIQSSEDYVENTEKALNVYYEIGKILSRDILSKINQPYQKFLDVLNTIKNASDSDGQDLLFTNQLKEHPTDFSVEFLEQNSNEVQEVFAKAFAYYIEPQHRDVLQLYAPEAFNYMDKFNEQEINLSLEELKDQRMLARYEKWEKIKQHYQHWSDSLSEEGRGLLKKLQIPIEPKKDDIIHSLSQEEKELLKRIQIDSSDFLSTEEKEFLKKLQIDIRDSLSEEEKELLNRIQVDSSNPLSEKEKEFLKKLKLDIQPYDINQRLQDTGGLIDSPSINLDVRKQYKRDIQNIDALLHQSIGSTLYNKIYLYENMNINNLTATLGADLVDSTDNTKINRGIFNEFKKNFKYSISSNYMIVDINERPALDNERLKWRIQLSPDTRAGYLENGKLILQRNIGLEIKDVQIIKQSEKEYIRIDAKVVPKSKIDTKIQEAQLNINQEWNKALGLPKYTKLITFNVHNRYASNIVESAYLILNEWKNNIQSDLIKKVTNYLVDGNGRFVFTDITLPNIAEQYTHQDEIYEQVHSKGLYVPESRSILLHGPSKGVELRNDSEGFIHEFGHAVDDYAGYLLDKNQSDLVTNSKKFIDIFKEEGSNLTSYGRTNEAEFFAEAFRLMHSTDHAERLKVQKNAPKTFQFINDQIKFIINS

[13] = molecular target: Botulinum neurotoxin type F (Clostridium botulinum, UniProt P30996); test: High-throughput multiplex microsphere dose response for inhibitors of toxin protease, specifically Botulinum neurotoxin light chain F protease, compounds from Cherry Pick 02.; format: functional; conditions: read-out: EC50_MICROM
Chain of Botulinum neurotoxin type F (P30996 1-436 limits assumed): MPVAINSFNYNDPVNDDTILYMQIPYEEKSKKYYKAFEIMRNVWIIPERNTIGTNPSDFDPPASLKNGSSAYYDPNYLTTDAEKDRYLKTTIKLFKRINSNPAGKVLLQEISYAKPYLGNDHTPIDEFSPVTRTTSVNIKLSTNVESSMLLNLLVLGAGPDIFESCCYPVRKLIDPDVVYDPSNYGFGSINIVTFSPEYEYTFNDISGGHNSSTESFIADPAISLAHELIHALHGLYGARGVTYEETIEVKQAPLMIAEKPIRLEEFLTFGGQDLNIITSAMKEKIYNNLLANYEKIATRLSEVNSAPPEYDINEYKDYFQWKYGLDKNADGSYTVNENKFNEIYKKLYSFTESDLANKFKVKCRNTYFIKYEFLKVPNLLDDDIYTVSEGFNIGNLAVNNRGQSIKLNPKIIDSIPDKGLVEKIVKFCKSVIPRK

[14] = molecular target: T5, Palmitoyl-protein thioesterase ABHD10, mitochondrial (Mus musculus, UniProt Q6PE15); test: Late stage assay provider results from the probe development effort to identify inhibitors of PME-1: fluorescence-based dose response biochemical gel-based competitive Activity-Based Protein Profiling (ABPP) inhibition of ABHD10 Set 1.; format: functional
T5 sequence (Q6PE15 whole entry): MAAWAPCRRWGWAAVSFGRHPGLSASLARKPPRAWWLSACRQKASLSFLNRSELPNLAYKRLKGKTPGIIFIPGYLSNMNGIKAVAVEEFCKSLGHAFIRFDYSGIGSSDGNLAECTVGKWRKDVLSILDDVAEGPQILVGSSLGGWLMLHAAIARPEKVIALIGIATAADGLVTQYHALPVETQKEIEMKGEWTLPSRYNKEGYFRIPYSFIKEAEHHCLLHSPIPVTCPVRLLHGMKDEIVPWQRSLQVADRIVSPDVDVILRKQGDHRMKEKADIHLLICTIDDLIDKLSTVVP

[15] = molecular target: T5, Palmitoyl-protein thioesterase ABHD10, mitochondrial; test: Late stage assay provider results from the probe development effort to identify inhibitors of PME-1: fluorescence-based dose response cell-based gel-based competitive Activity-Based Protein Profiling (ABPP) inhibition of ABHD10.; format: functional
[16] = Luminescence Cell-Based Dose Response HTS to Identify Activators of Luciferase Translation or Activity in H4 […] Cells. [Related pubchem assays: 1829 (Project Summary), 1814 (Primary HTS)]; format: functional
H4 = test: Luminescence Cell-Based Dose Response HTS to Identify Activators of 5'UTR Stem-Loop Driven Prion Protein mRNA Translation in H4 Neuroglioblastoma Cells. [Related pubchem assays: 1829 (Project Summary), 1814 (Primary HTS)]; format: functional; conditions: Homo sapiens
[17] = molecular target: T2, Tyrosine-protein phosphatase non-receptor type 22; test: PTPN22 phosphatase inhibition, dose response, selectivity assay for STEP inhibitor project, biochemical (AID 624241); format: functional
[18] = molecular target: T6, Tyrosine-protein phosphatase non-receptor type 5 (Homo sapiens, UniProt P54829); test: STEP phosphatase inhibitors, confirmation, biochemical, fluorescence intensity, uHTS hits (AID 602372); format: functional; conditions: read-out: IC50_Mean
T6 sequence (P54829 whole entry): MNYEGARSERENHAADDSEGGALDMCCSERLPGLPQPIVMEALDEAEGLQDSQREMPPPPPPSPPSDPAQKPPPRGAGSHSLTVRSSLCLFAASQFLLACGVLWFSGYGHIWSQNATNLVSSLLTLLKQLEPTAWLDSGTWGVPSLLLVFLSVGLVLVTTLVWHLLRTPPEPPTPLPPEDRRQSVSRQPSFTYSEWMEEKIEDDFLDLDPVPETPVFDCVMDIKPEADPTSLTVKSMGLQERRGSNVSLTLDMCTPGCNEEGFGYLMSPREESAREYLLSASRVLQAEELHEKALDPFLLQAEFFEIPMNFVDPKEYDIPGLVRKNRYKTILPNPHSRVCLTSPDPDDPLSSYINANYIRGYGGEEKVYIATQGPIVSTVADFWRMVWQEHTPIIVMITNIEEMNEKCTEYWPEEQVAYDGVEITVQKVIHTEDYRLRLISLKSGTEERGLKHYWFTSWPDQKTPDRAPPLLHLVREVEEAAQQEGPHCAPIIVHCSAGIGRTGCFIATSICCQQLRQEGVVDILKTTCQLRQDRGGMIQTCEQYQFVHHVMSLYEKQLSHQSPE

[19] = molecular target: T7, Tyrosine-protein phosphatase non-receptor type 11 (Homo sapiens, UniProt Q06124); test: SHP2 phosphatase inhibition, dose response, selectivity assay for STEP inhibitor project, biochemical (AID 602367); format: functional; conditions: read-out: IC50_Mean
T7 sequence (Q06124 whole entry): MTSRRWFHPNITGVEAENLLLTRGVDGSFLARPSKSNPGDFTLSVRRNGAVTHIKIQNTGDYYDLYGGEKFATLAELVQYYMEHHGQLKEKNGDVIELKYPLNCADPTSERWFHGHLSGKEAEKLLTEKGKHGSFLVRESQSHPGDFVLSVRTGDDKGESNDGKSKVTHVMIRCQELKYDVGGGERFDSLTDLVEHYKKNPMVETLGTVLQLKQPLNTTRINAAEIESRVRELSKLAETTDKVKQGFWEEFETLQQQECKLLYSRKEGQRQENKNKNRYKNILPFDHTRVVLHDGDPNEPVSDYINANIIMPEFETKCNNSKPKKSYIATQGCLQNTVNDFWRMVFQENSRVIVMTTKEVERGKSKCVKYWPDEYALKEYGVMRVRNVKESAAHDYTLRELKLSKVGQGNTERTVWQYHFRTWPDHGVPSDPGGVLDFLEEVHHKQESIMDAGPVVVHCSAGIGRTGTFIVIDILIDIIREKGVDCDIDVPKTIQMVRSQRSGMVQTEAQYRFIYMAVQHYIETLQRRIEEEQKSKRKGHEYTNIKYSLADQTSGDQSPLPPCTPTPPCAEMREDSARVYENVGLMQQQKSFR

[20] = molecular target: Dual specificity protein phosphatase 3 (Homo sapiens, UniProt P51452); test: VHR phosphatase inhibition, dose response, selectivity assay for STEP inhibitor project, biochemical (AID 602374); format: functional; conditions: read-out: IC50_Mean
Chain of Dual specificity protein phosphatase 3 (P51452 whole entry): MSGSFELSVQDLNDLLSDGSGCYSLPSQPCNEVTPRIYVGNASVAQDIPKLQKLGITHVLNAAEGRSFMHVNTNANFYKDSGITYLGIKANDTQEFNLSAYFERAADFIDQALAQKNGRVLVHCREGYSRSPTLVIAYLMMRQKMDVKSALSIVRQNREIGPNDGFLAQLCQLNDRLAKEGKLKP

[21] = Luminescence Cell-Based Dose Confirmation HTS to Identify Activators of 5'UTR Stem-Loop Driven Alpha-Synuclein mRNA Translation in H4 Neuroglioblastoma Cells. [Related pubchem assays: 1829 (Project Summary), 1814 (Primary HTS)]; format: functional
[22] = molecular target: T8, Carboxy-terminal domain RNA polymerase II polypeptide A small phosphatase 1 (Homo sapiens, UniProt Q9GZU7); test: inhibitors of CTDSP1, concentration-response testing, biochemical assay, absorbance-based, actives from ultra-high-throughput screening (AID 540297); format: functional
T8 sequence (Q9GZU7 whole entry): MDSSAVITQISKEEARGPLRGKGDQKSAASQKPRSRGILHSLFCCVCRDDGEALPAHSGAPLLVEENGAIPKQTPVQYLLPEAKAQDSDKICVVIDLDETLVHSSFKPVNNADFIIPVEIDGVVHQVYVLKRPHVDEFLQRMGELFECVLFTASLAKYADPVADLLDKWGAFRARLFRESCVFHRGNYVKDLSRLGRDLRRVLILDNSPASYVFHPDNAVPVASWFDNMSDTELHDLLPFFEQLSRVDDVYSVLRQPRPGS

Vero = test: Vero cell toxicity, dose response, cytotoxicity control, plate reader, cherry-pick samples (AID 687020); format: functional, cell-based; conditions: Chlorocebus sabaeus

Chain of Mu-type opioid receptor (P35372 whole entry): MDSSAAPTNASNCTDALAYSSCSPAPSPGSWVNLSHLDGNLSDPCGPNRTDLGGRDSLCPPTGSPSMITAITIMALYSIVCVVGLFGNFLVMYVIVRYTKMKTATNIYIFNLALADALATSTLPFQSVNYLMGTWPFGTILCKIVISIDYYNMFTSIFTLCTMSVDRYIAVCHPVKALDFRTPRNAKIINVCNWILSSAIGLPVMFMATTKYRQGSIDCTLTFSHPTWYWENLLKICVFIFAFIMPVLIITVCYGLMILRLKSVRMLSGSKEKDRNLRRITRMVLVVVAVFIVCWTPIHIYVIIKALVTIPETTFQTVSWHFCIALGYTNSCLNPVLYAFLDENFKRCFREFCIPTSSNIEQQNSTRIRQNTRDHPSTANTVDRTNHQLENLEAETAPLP

O=[N+]([O-])c1cccc(CN2CCN(c3ncccn3)CC2)c1
EC50 (Mu-type opioid receptor): 92.5 µM (inactive) | EC50 [1]: 22.3 µM (inactive)

Cc1ccc(OCc2ccc(C(=O)Nc3ccc(C(N)=O)cc3)o2)c([N+](=O)[O-])c1
IC50 [2]: 16.7 µM (inactive) | IC50 [3]: 14 µM (inactive)

CCN(CC)c1ccc2cc(C(=O)NCc3ccc(F)cc3)c(=N)oc2c1
IC50 (Beta-lactamase [4]): > 59.6 µM (inactive) | IC50 (cells): 2.12 µM (active) | IC50 (Beta-lactamase [5]): 28.1 µM (inactive)

COc1cccc(CNc2nc(NCC3CC3)nc3ccsc23)c1OC
AC50 [6]: 23.6 µM (active) | IC50 [7]: 11.5 µM (active) | AC50 [8]: 4.48 µM (active) | IC50 [9]: 12.3 µM (active) | AC50 [10]: 34 µM (active) | IC50 [11]: 33.3 µM (inactive)

Cc1cc2ccccc2n1CCNC(=O)C(C)C
IC50 (Protein skinhead-1): 94.3 µM (inactive) | EC50 [12]: > 195 µM (not active) | EC50 (Lethal factor): 19.5 µM (active) | EC50 [13]: > 20 µM (inactive)

CC[C@@]1(c2ccc(C)cc2)C(=O)N(C(=O)OC(C)C)N1C(=O)OC(C)C
IC50 [14]: 0.017 µM (active) | IC50 [15]: 0.028 µM (active)

N#C/C(=C\c1ccc(OC(=O)c2ccc(Cl)s2)cc1)c1nc2ccccc2[nH]1
EC50 [16]: 19.1 µM (active) | EC50 (H4): 71.4 µM (active) | IC50 [17]: 22.9 µM (inactive) | IC50 [18]: 16.9 µM (active) | IC50 [19]: 1.29 µM (active) | IC50 [20]: 2.49 µM (active) | EC50 [21]: 13.1 µM (active) | IC50 [22]: 1.77 µM (active)

O=C(Nc1ccccc1C(F)(F)F)C(O)(c1ccccc1)C1CCCCC1 (stereo not drawn)
AC50 (Vero): 36.8 µM (active)
